Source: ChEMBL document CHEMBL1671732, “No evidence for induction of ABC transporters in peripheral blood mononuclear cells in humans after 14 days of efavirenz treatment” (Antimicrob Agents Chemother, 2010)

Assays:
[1] = Half life in healthy human plasma at 400 mg, po measured on day 1 post dose by liquid chromatography-tandem mass spectrometry; type: ADME, organism-based
[2] = Apparent oral clearance in healthy human plasma at 400 mg, po qd for 14 days by liquid chromatography-tandem mass spectrometry; type: ADME, organism-based
Homo sapiens [3] = test: Volume of distribution in healthy human plasma at 400 mg, po qd for 14 days by liquid chromatography-tandem mass spectrometry; type: ADME, organism-based; details: in vivo, 336 h
[4] = Apparent oral clearance in healthy human plasma at 400 mg, po measured on day 1 post dose by liquid chromatography-tandem mass spectrometry; type: ADME, organism-based
Homo sapiens [5] = test: Volume of distribution in healthy human plasma at 400 mg, po measured on day 1 post dose by liquid chromatography-tandem mass spectrometry; type: ADME, organism-based; details: in vivo
[6] = Tmax in healthy human plasma at 400 mg, po measured on day 1 post dose by liquid chromatography-tandem mass spectrometry; type: ADME, organism-based
[7] = Tmax in healthy human plasma at 400 mg, po qd for 14 days by liquid chromatography-tandem mass spectrometry; type: ADME, organism-based
[8] = Cmax in healthy human plasma at 400 mg, po measured on day 1 post dose by liquid chromatography-tandem mass spectrometry; type: ADME, organism-based; parameters: dose 400 mg, route oral
[9] = Cmax in healthy human plasma at 400 mg, po qd for 14 days by liquid chromatography-tandem mass spectrometry; type: ADME, organism-based; parameters: dose 400 mg, route oral
[10] = Half life in healthy human plasma at 400 mg, po qd for 14 days by liquid chromatography-tandem mass spectrometry; type: ADME, organism-based
[11] = Ratio of drug concentration in PBMCs to plasma of healthy human administered at 400 mg, po measured after 24 hrs on day 1 post dose; type: ADME, organism-based, PBMC
[12] = Ratio of drug concentration in PBMCs to plasma of healthy human administered at 400 mg, po measured after 5 hrs on day 1 post dose; type: ADME, organism-based, PBMC
[13] = Ratio of drug concentration in PBMCs to plasma of healthy human administered at 400 mg, po qd for 14 days measured after 5 hrs post last dose; type: ADME, organism-based, PBMC
[14] = Drug concentration in PBMCs of healthy human at 400 mg, po measured after 5 hrs on day 1 post dose by liquid chromatography-tandem mass spectrometry; type: ADME, organism-based, PBMC; details: read-out: Drug uptake
[15] = Drug concentration in PBMCs of healthy human at 400 mg, po ad for 14 days measured after 5 hrs post last dose by liquid chromatography-tandem mass spectrometry; type: ADME, organism-based, PBMC; details: read-out: Drug uptake
[16] = Drug concentration in PBMCs of healthy human at 400 mg, po measured after 24 hrs on day 1 post dose by liquid chromatography-tandem mass spectrometry; type: ADME, organism-based, PBMC; details: read-out: Drug uptake
[17] = Drug concentration in PBMCs of healthy human at 400 mg, po ad for 14 days measured after 24 hrs post last dose by liquid chromatography-tandem mass spectrometry; type: ADME, organism-based, PBMC; details: read-out: Drug uptake
Plasma [18] = test: Fraction unbound in healthy human plasma at 400 mg, po measured on day 1 post dose by liquid chromatography-tandem mass spectrometry; type: ADME, organism-based; details: in vivo
Plasma [19] = test: Fraction unbound in healthy human plasma at 400 mg, po qd for 14 days by liquid chromatography-tandem mass spectrometry; type: ADME, organism-based; details: in vivo, 336 h
Homo sapiens [20] = test: Reduction in ABCB1 mRNA expression in healthy human at 400 mg, po qd for 14 days by RT-PCR; type: ADME, organism-based; details: in vivo, 336 h
Homo sapiens [21] = test: Reduction in ABCC1 mRNA expression in healthy human at 400 mg, po qd for 14 days by RT-PCR; type: ADME, organism-based; details: in vivo, 336 h
Homo sapiens [22] = test: Reduction in ABCC2 mRNA expression in healthy human at 400 mg, po qd for 14 days by RT-PCR; type: ADME, organism-based; details: in vivo, 336 h
Homo sapiens [23] = test: Effect on P-gp activity in PBMCs isolated from healthy human receiving compound dose at 400 mg, po qd for 14 days by rhodamine -123 efflux assay; type: ADME, organism-based; details: in vivo, 336 h
[24] = Ratio of drug concentration in PBMCs to plasma of healthy human administered at 400 mg, po qd for 14 days measured after 24 hrs post last dose; type: ADME, organism-based, PBMC

half-life [1]: 78.7 h
CL/F [2]: 148 mL/min
Vd (Homo sapiens [3]): 401.6 L
CL/F [4]: 70.7 mL/min
Vd (Homo sapiens [5]): 462.8 L
Tmax [6]: 2.3 h
Tmax [7]: 2.2 h
Cmax [8]: 2740 ng/mL
Cmax [9]: 3760 ng/mL
half-life [10]: 33 h
Kp at 24 h [11]: 1.53
Kp at 5 h [12]: 1.63
Kp at 5 h [13]: 1.76
concentration at 5 h [14]: 1470 ng/mL
concentration at 5 h [15]: 3600 ng/mL
concentration at 24 h [16]: 974 ng/mL
concentration at 24 h [17]: 2030 ng/mL
Fu (Plasma [18]): 0.47%
Fu (Plasma [19]): 0.52%
Kp at 24 h [24]: 1.36
Structure (SMILES): O=C1Nc2ccc(Cl)cc2[C@@](C#CC2CC2)(C(F)(F)F)O1 [EFAVIRENZ]
Activity (Homo sapiens [20]): Non-toxic
Activity (Homo sapiens [21]): Non-toxic
Activity (Homo sapiens [22]): Non-toxic
Activity (Homo sapiens [23]): Non-toxic
